The target in one experiment is T1, PrsA (Haemophilus influenzae, UniProt P44328).
T1 construct: gene prs; recombinant, E. coli M15; cloned in MBP-S3N10-...-His6 vector
Nature of the experiment: HPLC-AEC. It counts as biochemical. The following applies: Mg2+, pH 8.0, 37 °C.

For another experiment, the target named is T2, Bcs1 (Haemophilus influenzae, UniProt Q48230).
T2 construct: recombinant, E. coli M15; cloned in MBP-S3N10-...-His6 vector
The experiment in a line: HPLC-AEC. It counts as biochemical. The note with it: 5 mM, CTP, Mg2+, pH 8.0, 37 °C.

Experiment [1] has as its target Bcs3 crystallization construct MBP-Bcs3_(2–1162)-His6 after PreScission digest (Bcs3-His6) (Haemophilus influenzae serotype b (strain ATCC 10211)) (UniProt Q2ERG0). Nature of the experiment: crystal structure.
The target of a further experiment is T3, Bcs3 (Haemophilus influenzae, UniProt Q2ERG0).
T3 construct: full length, 1,215 residues; N-terminal MBP-S3N10 and C-terminal His6 fusion; E. coli M15
The experiment in a line: HPLC-AEC and Alcian blue PAGE of polymer formation. Type of experiment: biochemical. The following applies: Mg2+, pH 8.0, 37 °C.

Broadly, the stoichiometry N is the number of molecules, sites or subunits per partner or assembly.

Take `Nc1ncnc2c1ncn2[C@@H]1O[C@H](COP(=O)(O)OP(=O)(O)OP(=O)(O)O)[C@@H](O)[C@H]1O` [ATP]: at PrsA (ribose-5-phosphate), the HPLC-AEC result was “(c) PrsA using ATP, CTP or UTP as donor substrate”.
Consider `NC(=O)C1=CN([C@@H]2O[C@H](COP(=O)(O)OP(=O)(O)OC[C@H]3O[C@@H](n4cnc5c(N)ncnc54)[C@H](OP(=O)(O)O)[C@@H]3O)[C@@H](O)[C@H]2O)C=CC1` [NADPH], for which, on Bcs1 (ribulose-5-phosphate), the HPLC-AEC result is “presence of Bcs1 in a reaction containing ribulose-5-phosphate led to the consumption of NADPH”.
As to “Bcs3 crystallization construct MBP-Bcs3_(2–1162)-His6 after PreScission digest (Bcs3-His6) (from UniProt Q2ERG0 2-1162) (enzyme)”, the stoichiometry N in experiment [1] was determined as 2.
In the case of `O=P(O)(O)OC[C@H]1OC(O)[C@H](O)[C@@H]1O` (stereo partly drawn) [D-ribose-5-phosphate], at PrsA (ATP), the HPLC-AEC entry is “The reaction cascade (e, f) was started with (e) Rib or (f) Rib-5P”.
For `O=P(O)(O)OC[C@H]1O[C@H](OP(=O)(O)OP(=O)(O)O)[C@H](O)[C@@H]1O` [PRPP, 5-phospho-α-D-ribose-1-diphosphate], at Bcs3 (5 mM, CDP-ribitol generated in situ by RpiA and Bcs1, CriT donor), the “HPLC-AEC and Alcian blue PAGE of polymer formation” value is listed as “Thus, we concluded that PRPP is the donor substrate for Bcs3”.
As for `Nc1ccn([C@@H]2O[C@H](COP(=O)(O)OP(=O)(O)OC[C@@H](O)[C@@H](O)[C@@H](O)CO)[C@@H](O)[C@H]2O)c(=O)n1` [CDP-ribitol], the “HPLC-AEC and Alcian blue PAGE of polymer formation” value on Bcs3 (generated in situ by RpiA and Bcs1, with PRPP, CroT donor) was “CDP-ribitol was only used up in the presence of PRPP, with concomitant production of CMP”.
Turning to `O=C(CO)[C@H](O)[C@H](O)COP(=O)(O)O` [ribulose-5-phosphate], the HPLC-AEC entry on Bcs1 (NADPH) is listed as “presence of Bcs1 in a reaction containing ribulose-5-phosphate led to the consumption of NADPH”.

The record behind these values is publication PMC10299916, “A multi-enzyme machine polymerizes the Haemophilus influenzae type b capsule” (Nature Chemical Biology, 2023).
